Here are results for 22 compounds from patent US6410558B1, “Fungicides for the control of take-all disease of plants” (Monsanto Technology LLC, priority 1991, dated 2002).

Each structure is given as a SMILES string. Read-outs that look alike come from different tables or passages of the source.

The subject of experiment [1] is Gaeumannomyces graminis var. tritici (Ggt). Nature of the experiment: In vitro Assay: mycelial growth of Ggt on minimal media agar plates containing test compound. The class given is cell-based. As to conditions: dark, 19-20° C., 4 to 5 days, diameter of mycelial growth; for inhibition at 0.1 ppm / inhibition at 1 ppm / inhibition at 10 ppm: Gaeumannomyces graminis; for inhibition at 0.1 ppm: read-out: In vitro (ppm) 0.1, Percent Inhibition; for inhibition at 1 ppm: read-out: In vitro (ppm) 1, Percent Inhibition; for inhibition at 10 ppm: read-out: In vitro (ppm) 10, Percent Inhibition. In a few lines:
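Ggt mycelial diameter read after 4 to 5 days in darkness at 19-20° C, from three 4-mm plugs placed on Czapek Dox minimal agar containing test compound delivered in acetone. Inhibition expressed as percent versus untreated plates, plug size (4 mm) subtracted from both.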

In experiment [2] the test system is Ggt. As to the kind of experiment: In vivo Assay: control of Ggt on wheat grown in pots of Ggt-infested soil, root disease rating. As to conditions: for pest or weed control at 0.5 mg/pot: Gaeumannomyces graminis, 672 h, read-out: In vivo, percent disease control. Set-up: species or system Gaeumannomyces graminis var. tritici. The procedure:
Compounds are tested for control of Ggt on ‘Bergen’ or ‘Anza’ varieties of wheat grown in 3-inch square pots containing soil infested with Ggt. The infestation is accomplished by mixing the soil with an inoculum prepared by growing Ggt on ¼ strength potato dextrose agar (4.875 g potato dextrose agar, 5.0 g Bacto agar, 500 mL distilled, deionized water) in plates and using plugs from the plates to infest sterile oats (400 cc whole oats, 350 mL deionized water, autoclaved). After a one-month incubation period at room temperature, the oats are dried and mixed with the soil at 4% v/v. Four wheat seeds are placed on top of the soil in each pot. The test compounds are prepared as an 1:9 acetone/water v/v solution containing 0.18% Tween® 20 to provide a treatment rate of 0.5 mg active ingredient per pot, treated with 3 mL test solution per pot. Five pots are used for each treatment level and the controls, which are untreated, inoculated and non-inoculated pots. After one hour drying time, the seeds are covered with more of the appropriate soil and a layer of vermiculite. The pots are placed in a growth chamber and watered each day. After four weeks, each pot is evaluated for evidence of disease by examination of the seminal roots of each plant under a dissecting microscope. A 0 to 5 rating scale having the following meanings is used:
0=no runner hyphae or lesions present
1=runner hyphae and a few small lesions present on <10% of root system
2=runner hyphae and small lesions present on 10-25% of root system
3=runner hyphae and lesions present on 25-50% of root system
4=runner hyphae and many, large, coalescing lesions on >50% of root system
5=root system and culm completely inundated with lesions and runner hyphae
From each set of five replicates a high and low score is eliminated and a replicate mean is calculated by the average of the remaining three scores. This mean score is then compared to the untreated control score and a percent disease control is calculated.

[3] abbreviates: 0.5 mg active ingredient per pot, 'Bergen' or 'Anza' wheat in Ggt-infested soil, after four weeks, vs untreated control.

With `CCN(CC)C(=O)c1c(F)ccc(F)c1[Si](C)(C)C` [Example 56, N,N-Diethyl-3,6-difluoro-2-(trimethylsilyl)benzamide], the inhibition – broadly, the drop in the measured response relative to a control, in per cent – at 0.1 ppm in experiment [1] (0.1 ppm in minimal media agar) turned out to be 10%. Besides, the inhibition at 1 ppm in experiment [1] (1 ppm in minimal media agar) is 31%. Moreover, the inhibition at 10 ppm in experiment [1] (10 ppm in minimal media agar) stood at 74%. The pest or weed control at 0.5 mg/pot in experiment [2] (setting [3]) is 91%.
Regarding `CCN(CC)C(=O)c1c(C(F)(F)F)cccc1[Si](C)(C)C` [Example 61, N,N-Diethyl-2-(trimethylsilyl)-6-(trifluoromethyl)benzamide], the inhibition at 0.1 ppm in experiment [1] (0.1 ppm in minimal media agar) was determined as 9%. The inhibition at 1 ppm in experiment [1] (1 ppm in minimal media agar) is 29%. Besides, in experiment [1] (10 ppm in minimal media agar), the inhibition at 10 ppm worked out at 49%. Further, the pest or weed control at 0.5 mg/pot in experiment [2] (setting [3]) was determined as 1%.
Take `CCN(CC)C(=O)c1c(C(F)(F)F)ccc(C(F)(F)F)c1[Si](C)(C)C` [Example 62, N,N-Diethyl-2-(trimethylsilyl)-3,6-bis(trifluoromethyl)benzamide]: the inhibition at 0.1 ppm in experiment [1] (0.1 ppm in minimal media agar) amounted to 8%. In addition, in experiment [1] (1 ppm in minimal media agar), the inhibition at 1 ppm was 3%. Further, the inhibition at 10 ppm in experiment [1] (10 ppm in minimal media agar) is 69%. In experiment [2] (setting [3]), the pest or weed control at 0.5 mg/pot was determined as 9%.
Turning to `CCN(CC)C(=O)c1c([Si](C)(C)C)ccc(C)c1Cl` [Example 65, N,N-Diethyl-2-chloro-3-methyl-6-(trimethylsilyl)benzamide], in experiment [1] (0.1 ppm in minimal media agar), the inhibition at 0.1 ppm was determined as 39%. In addition, in experiment [1] (1 ppm in minimal media agar), the inhibition at 1 ppm came to 56%. In addition, the inhibition at 10 ppm in experiment [1] (10 ppm in minimal media agar) worked out at 100%. The pest or weed control at 0.5 mg/pot in experiment [2] (setting [3]) stood at 95%.
The matching figures for `CCN(CC)C(=O)c1c(Cl)cccc1[Si](CC)(CC)CC` [Example 66, N,N-Diethyl-2-chloro-6-(triethylsilyl)benzamide]: less than 0%, less than 0%, 58% and 3%.
Take `CCN(CC)C(=O)c1c(Cl)cccc1[Si](C)(C)c1ccccc1` [Example 67, N,N-Diethyl-2-chloro-6-(dimethylphenylsilyl)benzamide]: the inhibition at 0.1 ppm in experiment [1] (0.1 ppm in minimal media agar) was less than 0%. For the same compound, the inhibition at 1 ppm in experiment [1] (1 ppm in minimal media agar) was 19%. Moreover, the inhibition at 10 ppm in experiment [1] (10 ppm in minimal media agar) is 100%. For the same compound, the pest or weed control at 0.5 mg/pot in experiment [2] (setting [3]) is less than 0%.
On to `CCN(CC)C(=O)c1c(Cl)cccc1[Si](C(C)C)(C(C)C)C(C)C` [Example 68, N,N-Diethyl-2-chloro-6-[tris(1-methylethyl)silyl]benzamide], for which the inhibition at 0.1 ppm in experiment [1] (0.1 ppm in minimal media agar) is 8%. Besides, the inhibition at 1 ppm in experiment [1] (1 ppm in minimal media agar) is less than 0%. Further, the inhibition at 10 ppm in experiment [1] (10 ppm in minimal media agar) is 41%. Further, the pest or weed control at 0.5 mg/pot in experiment [2] (setting [3]) was less than 0%.
On to `CCN(CC)C(=O)c1c(Cl)cccc1[Si](C)(C)CCl` [Example 69, N,N-Diethyl-2-chloro-6-[(chloromethyl)dimethylsilyl]benzamide], for which the inhibition at 0.1 ppm in experiment [1] (0.1 ppm in minimal media agar) was 51%. The inhibition at 1 ppm in experiment [1] (1 ppm in minimal media agar) was found to be 81%. In experiment [1] (10 ppm in minimal media agar), the inhibition at 10 ppm is 100%. Also, in experiment [2] (setting [3]), the pest or weed control at 0.5 mg/pot amounted to 67%.
As to `CCN(CC)C(=O)c1c(Cl)ccc(C)c1[Si](C)(C)C` [Example 71, N,N-Diethyl-6-chloro-3-methyl-2-(trimethylsilyl)benzamide], the inhibition at 0.1 ppm in experiment [1] (0.1 ppm in minimal media agar) is 14%. Also, the inhibition at 1 ppm in experiment [1] (1 ppm in minimal media agar) is 8%. Also, the inhibition at 10 ppm in experiment [1] (10 ppm in minimal media agar) was less than 0%. For the same compound, in experiment [2] (setting [3]), the pest or weed control at 0.5 mg/pot was determined as 50%.
The corresponding values for `CCN(CC)C(=S)c1cccc(F)c1[Si](C)(C)C` [Example 74, N,N-Diethyl-3-fluoro-2-(trimethylsilyl)thiobenzamide] are 7%, 31%, 93% and 47%.
Take `CCSC(=O)c1c(Cl)cccc1[Si](C)(C)C` [Example 77, 2-Chloro-6-(trimethylsilyl)benzenecarbothioic acid, S-ethyl ester]: the inhibition at 0.1 ppm in experiment [1] (0.1 ppm in minimal media agar) was 13%. Also, the inhibition at 1 ppm in experiment [1] (1 ppm in minimal media agar) was found to be 47%. Moreover, the inhibition at 10 ppm in experiment [1] (10 ppm in minimal media agar) is 100%. The pest or weed control at 0.5 mg/pot in experiment [2] (setting [3]) is less than 0%.
Take `CCNC(=O)c1c(C(F)(F)F)cccc1[Si](C)(C)C` [Example 82, N-Ethyl-2-(trifluoromethyl)-6-(trimethylsilyl)benzamide]: in experiment [1] (0.1 ppm in minimal media agar), the inhibition at 0.1 ppm stood at 30%. Besides, in experiment [1] (1 ppm in minimal media agar), the inhibition at 1 ppm was less than 0%. Moreover, in experiment [1] (10 ppm in minimal media agar), the inhibition at 10 ppm stood at 57%. Besides, the pest or weed control at 0.5 mg/pot in experiment [2] (setting [3]) worked out at 58%.
Take `CCNC(=O)c1c(Cl)cccc1[Si](C)(C)CCl` [Example 83, N-Ethyl-2-chloro-6-[(chloromethyl)dimethylsilyl]benzamide]: in experiment [1] (0.1 ppm in minimal media agar), the inhibition at 0.1 ppm is 100%. The inhibition at 1 ppm in experiment [1] (1 ppm in minimal media agar) is 100%. Further, in experiment [1] (10 ppm in minimal media agar), the inhibition at 10 ppm was 100%. In experiment [2] (setting [3]), the pest or weed control at 0.5 mg/pot was 99%.
As to `C=C[Si](C)(C)c1cccc(Cl)c1C(=O)NCC` [Example 87, N-Ethyl-2-chloro-6-(ethenyldimethylsilyl)benzamide], in experiment [1] (0.1 ppm in minimal media agar), the inhibition at 0.1 ppm was determined as 93%. The inhibition at 1 ppm in experiment [1] (1 ppm in minimal media agar) was 100%. The inhibition at 10 ppm in experiment [1] (10 ppm in minimal media agar) came to 100%. Besides, in experiment [2] (setting [3]), the pest or weed control at 0.5 mg/pot came out at 96%.
Regarding `CCNC(=O)c1c(Cl)cccc1OC(C)(C)C` [Example 89, N-Ethyl-2-chloro-6-(1,1-dimethylethoxy)benzamide], in experiment [1] (0.1 ppm in minimal media agar), the inhibition at 0.1 ppm turned out to be 19%. For the same compound, in experiment [1] (1 ppm in minimal media agar), the inhibition at 1 ppm was found to be 85%. For the same compound, the inhibition at 10 ppm in experiment [1] (10 ppm in minimal media agar) stood at 100%. Moreover, the pest or weed control at 0.5 mg/pot in experiment [2] (setting [3]) worked out at 96%.
As to `CCCN(C(=O)c1c(Cl)cccc1[Si](C)(C)C)C(C)C` [Example 95, 2-Chloro-N-(1-methylethyl)-N-propyl-6-(trimethylsilyl)benzamide], the inhibition at 0.1 ppm in experiment [1] (0.1 ppm in minimal media agar) was less than 0%. Further, the inhibition at 1 ppm in experiment [1] (1 ppm in minimal media agar) amounted to 62%. Besides, the inhibition at 10 ppm in experiment [1] (10 ppm in minimal media agar) was determined as 100%. Moreover, in experiment [2] (setting [3]), the pest or weed control at 0.5 mg/pot came out at 63%.
On to `CCN(CC)C(=O)c1c(CF)cccc1[Si](C)(C)C` [Example 98, N,N-Diethyl-2-(fluoromethyl)-6-(trimethylsilyl)benzamide], for which the inhibition at 0.1 ppm in experiment [1] (0.1 ppm in minimal media agar) stood at 22%. Moreover, the inhibition at 1 ppm in experiment [1] (1 ppm in minimal media agar) turned out to be 81%. Moreover, the inhibition at 10 ppm in experiment [1] (10 ppm in minimal media agar) worked out at 100%. Besides, the pest or weed control at 0.5 mg/pot in experiment [2] (setting [3]) was 97%.
Regarding `CN(C)NC(=O)c1c(Cl)cccc1[Si](C)(C)C` [Example 99, 2-Chloro-6-(trimethylsilyl)-2,2-dimethylhydrazide-benzoic acid], in experiment [1] (0.1 ppm in minimal media agar), the “In vitro (ppm) 0.1, Percent Inhibition” value is listed as 5%. The “In vitro (ppm) 1, Percent Inhibition” value in experiment [1] (1 ppm in minimal media agar) is 72%. For the same compound, the “In vitro (ppm) 10, Percent Inhibition” value in experiment [1] (10 ppm in minimal media agar) was determined as 95%. Further, in experiment [2] (setting [3]), the “In vivo, percent disease control” value stood at 59%.
As for `CN(Cc1ccc(C(F)(F)F)cc1)C(=O)c1c(Cl)cccc1[Si](C)(C)C` [Example 103, 2-Chloro-N-methyl-N-[[4-(trifluoromethyl)phenyl]-methyl]-6-(trimethylsilyl)-benzamide], the inhibition at 0.1 ppm in experiment [1] (0.1 ppm in minimal media agar) was less than 0%. Moreover, the inhibition at 1 ppm in experiment [1] (1 ppm in minimal media agar) is 55%. For the same compound, the inhibition at 10 ppm in experiment [1] (10 ppm in minimal media agar) worked out at 92%. The pest or weed control at 0.5 mg/pot in experiment [2] (setting [3]) turned out to be 26%.
Turning to `C=CCNC(=O)c1c(Cl)cccc1[Si](C)(C)C` [Example 106, 2-Chloro-N-2-propenyl-6-(trimethylsilyl)benzamide], the inhibition at 0.1 ppm in experiment [1] (0.1 ppm in minimal media agar) turned out to be 95%. In experiment [1] (1 ppm in minimal media agar), the inhibition at 1 ppm stood at 95%. For the same compound, in experiment [1] (10 ppm in minimal media agar), the inhibition at 10 ppm was determined as 97%. Further, the pest or weed control at 0.5 mg/pot in experiment [2] (setting [3]) stood at 100%.
In the case of `CC(C)(C)OC(=O)Nc1c(Cl)cccc1[Si](C)(C)C` [Example 111, [2-Chloro-6-(trimethylsilyl)phenyl]carbamic acid, 1,1-dimethylethyl ester], the inhibition at 0.1 ppm in experiment [1] (0.1 ppm in minimal media agar) worked out at 14%. In experiment [1] (1 ppm in minimal media agar), the inhibition at 1 ppm came out at 66%. In addition, the inhibition at 10 ppm in experiment [1] (10 ppm in minimal media agar) stood at 100%. Further, the pest or weed control at 0.5 mg/pot in experiment [2] (soil) was determined as 48%.
Regarding `CC1CN(C(=O)c2c(Cl)cccc2[Si](C)(C)C)CC(C)O1` (stereo not shown) [Example 130, N-[2-Chloro-6-(trimethylsilyl)benzoyl]-2,6-dimethylmorpholine], the inhibition at 0.1 ppm in experiment [1] (0.1 ppm in minimal media agar) was 16%. In addition, in experiment [1] (1 ppm in minimal media agar), the inhibition at 1 ppm stood at 13%. In experiment [1] (10 ppm in minimal media agar), the inhibition at 10 ppm came to 39%. Also, the pest or weed control at 0.5 mg/pot in experiment [2] (setting [3]) was 1%.
